From patent publication US4119635A, “Substituted 1,2,4-triazole derivatives” (Gruppo Lepetit S.p.A., priority 1971, dated 1978)
Read-outs that look alike come from different tables or passages of the source.

How the values were obtained:
mice [1] = experiment: Spontaneous activity (S. Irwin scheme); assay type: in vivo; settings: Mus musculus, ip, read-out: Decrease of spontaneous activity ED50
Source text: (§1) As stated before, the compounds of the invention have CNS depressant utility. More exactly, the compounds of Examples 1,2,3,5-10, 14, 31(42), 32(56), 34, 35 and 45(55) are useful as sedatives and hypnotics. These pharmacological properties were ascertained by following the operative scheme and the manipulation procedure described by S. Irwin in Psychopharmacologia (Berl.), 13, 222, 1968. Especially, there were studied the biological effects of the compounds on two of the parameters which are closely related to the above properties, namely the "spontaneous activity" and the "righting reflex". The effects of the compounds on these two parameters were expressed as ED50 values ie., the amount of compound tested which reduces the spontaneous activity and righting reflex scores of test animals to 50% of those of the controls. The scores are the same as those reported by S. Irwin in the cited paper. For each compound it was also determined the minimal dosis which produces complete hypnosis of the test animals (MHD).
(§2) The obtained results are summarized in the following table, which also reports the toxicities of the tested substances, expressed as LD50 values. For comparison purposes, also the activity of two known compounds was determined. The known compounds are 1-methyl-3,5-diphenyl-1,2,4-triazole (Compound A, Atkinson et al. Journ. Chem. Soc., 1954, 141, 1954) and 1-methyl-3-phenyl-5-(p-chlorophenyl)-1,2,4-triazole (Compound B, Huisgen et al., Journ. Org. Chem., 24, 892, 1959).

mice [2] = experiment: Righting reflex (S. Irwin scheme); assay type: in vivo; settings: Mus musculus, ip, read-out: Impairment of righting reflex ED50
Source text: as §1, §2

mice [3] = experiment: Minimal dosis which produces complete hypnosis (MHD); assay type: in vivo; settings: Mus musculus, ip, read-out: Minimal hypnotic dosis
Source text: as §1

Toxicity (LD50) = settings: mouse, in vivo, ip
Description: as §2

rats = experiment: Secondary response avoidance test (G. Maffii), antianxiety effect; assay type: in vivo; settings: 20 mg/kg i.p.
Description: The compounds of Examples 34 and 45(55) are also useful as anxiety relieving means. This property was investigated on the basis of the secondary response avoidance test, which was performed as described by G. Maffii, Journ. Pharm. Pharmacol., 11, 192, 1959.

[4] = mice, dose reducing score to 50% of controls

Row | Structure (SMILES) | ED50 (mice [1]) [mg/kg] | ED50 (mice [2]) [mg/kg] | minimal effective dose (mice [3]; mice, complete hypnosis) [mg/kg] | LD50 (Toxicity (LD50); mice, read-out: Toxicity LD50) [mg/kg] | antianxiety effect (rats) | ED50 (mice [1]; [4]) [mg/kg] | ED50 (mice [2]; [4]) [mg/kg] | LD50 (Toxicity (LD50)) [mg/kg] | minimal effective dose (mice [3]) [mg/kg]
1 | Cc1ccccc1-c1nc(-c2cccc(N)c2)nn1C [Example 34, 1-Methyl-3-(3-aminophenyl)-5-(o-tolyl)-1,2,4-triazole] | 30 | 20 | 60 | 200 | remarkable antianxiety effect |  |  |  | 
2 | Cc1ccccc1-c1nc(-c2ccccc2)nn1C [31(42), 1-Methyl-5-(o-tolyl)-3-phenyl-1,2,4-triazole] | 60 | 50 | 300 | > 1000 |  |  |  |  | 
3 | Cn1nc(-c2ccccc2Cl)nc1-c1ccccc1CO [Example 2] | 60 | 60 | 300 | 500 |  |  |  |  | 
4 | Cc1cccc(-c2nc(-c3ccccc3C)n(C)n2)c1 [32(56), 1-Methyl-3-(m-tolyl)-5-(o-tolyl)-1,2,4-triazole] | 30 | 20 | 200 | > 1000 |  |  |  |  | 
5 | Cn1nc(-c2cccc([N+](=O)[O-])c2)nc1-c1ccccc1CO [Example 10, 1-methyl-3-(3-nitrophenyl)-5-(2-hydroxymethylphenyl)-1,2,4-triazole] |  |  | 300 | 1000 |  | 60 | 40 |  | 
6 | Cc1ccc(-c2nc(-c3ccccc3CO)n(C)n2)cc1 [Example 8] |  |  | 600 |  |  | 80 | 100 | > 1000 | 
7 | COc1cccc(-c2nc(-c3ccccc3C)n(C)n2)c1 [Example 35, 1-Methyl-3-(3-methoxyphenyl)-5-(o-tolyl)-1,2,4-triazole] | 60 | 50 | 300 | 1000 |  |  |  |  | 
8 | Cc1ccccc1-c1nc(-c2cccc(Cl)c2)nn1C [45(55), 1-Methyl-3-(3-chlorophenyl)-5-(o-tolyl)-1,2,4-triazole] | 30 | 50 | 300 | 700 | remarkable antianxiety effect |  |  |  | 
9 | COc1cccc(-c2nc(-c3ccccc3CO)n(C)n2)c1 [Example 9] |  |  | 300 |  |  | 60 | 60 | 1000 | 
10 | Cn1nc(-c2ccccc2)nc1-c1ccccc1CO [Example 1, 5-(2-Hydroxymethylphenyl)-1-methyl-3-phenyl-1,2,4-triazole] |  |  | 300 | 1000 |  | 60 | 100 |  | 
11 | Cn1nc(-c2ccccc2)nc1-c1ccc(Cl)cc1 [Compound B, 1-methyl-3-phenyl-5-(p-chlorophenyl)-1,2,4-triazole, reference compound] |  |  | > 600 | > 1000 |  | > 300 | > 300 |  | 
12 | Cn1nc(-c2cccc(F)c2)nc1-c1ccccc1CO [Example 5] | 30 | 50 | 150 | 400 |  |  |  |  | 
13 | Cn1nc(-c2ccc3c(c2)OCO3)nc1-c1ccccc1CO [Example 14] |  |  | 300 |  |  | 80 | 80 | > 1000 | 
14 | Cn1nc(-c2cccc(Cl)c2)nc1-c1ccccc1CO [Example 3] | 30 | 10 | 200 | 500 |  |  |  |  | 
15 | Cn1nc(-c2ccccc2)nc1-c1ccccc1 [Compound A, 1-methyl-3,5-diphenyl-1,2,4-triazole, reference compound] | > 100 | 300 |  | 1000 |  |  |  |  | > 1000
16 | Cc1cccc(-c2nc(-c3ccccc3CO)n(C)n2)c1 [Example 7] |  |  | 80 |  |  | 30 | 20 | 500 | 
17 | Cc1ccccc1-c1nc(-c2ccccc2CO)n(C)n1 [Example 6, 1-methyl-3-(o-tolyl)-5-(2-hydroxymethylphenyl)-1,2,4-triazole] | 50 | 25 | 600 | 1000 |  |  |  |  | 
